Laboratory results reported in ChEMBL document CHEMBL4699511, “Cedrol, a Sesquiterpene Alcohol, Enhances the Anticancer Efficacy of Temozolomide in Attenuating Drug Resistance via Regulation of the DNA Damage Response and MGMT Expression” (J Nat Prod, 2020).
Calls of active or inactive are those of the source. The rule behind the calls is not given here.

What was measured:
[1] = test system: DBTRG-05MG; assay: Synergistic cytotoxicity against human DBTRG-05MG cells assessed as synergistic effect index at 134.9 uM after 48 hrs in presence of 206 uM TMZ by MTT assay; assay type: functional
[2] = test system: DBTRG-05MG; assay: Synergistic cytotoxicity against human DBTRG-05MG cells assessed as combination index at 134.9 uM after 48 hrs in presence of 206 uM TMZ by MTT assay; assay type: functional
[3] = test system: RG2; assay: Synergistic cytotoxicity against rat RG2 cells assessed as synergistic effect index at 89.9 uM after 48 hrs in presence of 309 uM TMZ by MTT assay; assay type: functional
[4] = test system: RG2; assay: Synergistic cytotoxicity against rat RG2 cells assessed as combination index at 112.4 uM after 48 hrs in presence of 412.1 uM TMZ by MTT assay; assay type: functional
[5] = test system: RG2; assay: Synergistic cytotoxicity against rat RG2 cells assessed as combination index at 134.9 uM after 48 hrs in presence of 206 uM TMZ by MTT assay; assay type: functional
[6] = Synergistic cytotoxicity against rat CTX TNA2 cells assessed as synergistic effect index at 112.4 uM after 48 hrs in presence of 309 uM TMZ by MTT assay; assay type: cell-based; conditions: ctx tna2, 48 h
[7] = Synergistic cytotoxicity against rat CTX TNA2 cells assessed as synergistic effect index at 112.4 uM after 48 hrs in presence of 412.1 uM TMZ by MTT assay; assay type: cell-based; conditions: ctx tna2, 48 h
[8] = Synergistic cytotoxicity against rat CTX TNA2 cells assessed as combination index at 89.9 uM after 48 hrs in presence of 515.1 uM TMZ by MTT assay; assay type: cell-based; conditions: ctx tna2, 48 h
[9] = Synergistic cytotoxicity against rat CTX TNA2 cells assessed as combination index at 112.4 uM after 48 hrs in presence of 103 uM TMZ by MTT assay; assay type: cell-based; conditions: ctx tna2, 48 h
[10] = test system: RG2; assay: Induction of cell cycle arrest in rat RG2 cells assessed as accumulation at G2/M phase at 112.4 uM after 24 hrs in presence of TMZ by propidium iodide staining based flow cytometric analysis (reference value: 20.04 +/- 0.55%); assay type: functional
[11] = test system: DBTRG-05MG; assay: Induction of cell cycle arrest in human DBTRG-05MG cells assessed as CyclinD1 expression at 112.4 uM after 48 hrs by Western blot analysis (reference value: 1); assay type: functional
[12] = test system: DBTRG-05MG; assay: Induction of cell cycle arrest in human DBTRG-05MG cells assessed as CyclinA expression at 112.4 uM after 48 hrs by Western blot analysis (reference value: 1); assay type: functional
[13] = test system: RG2; assay: Induction of cell cycle arrest in rat RG2 cells assessed as CDK4 expression at 112.4 uM after 48 hrs by Western blot analysis (reference value: 1); assay type: functional
[14] = Effect on ERK expression in human DBTRG-05MG cells at 112.4uM after 48 hrs by Western blot analysis (reference value: 1); assay type: functional
[15] = target: MAP kinase p38 (Homo sapiens) (UniProt O15264+Q15759+Q16539+P53778); assay: Inhibition of p38 phosphorylation at Tyr182 residues in human DBTRG-05MG cells at 112.4uM after 48 hrs by Western blot analysis (reference value: 1); assay type: cell-based
[16] = test system: RG2; assay: Inhibition of JNK phosphorylation at Thr183/Tyr185 residues in rat RG2 cells at 112.4uM after 48 hrs in presence of TMZ by Western blot analysis (reference value: 1); assay type: cell-based
[17] = test system: DBTRG-05MG; assay: Induction of apoptosis in human DBTRG-05MG cells assessed as Bcl2 expression at 112.4 uM after 48 hrs in presence of TMZ by Western blot analysis (reference value: 1); assay type: functional
[18] = test system: DBTRG-05MG; assay: Induction of DNA damage in human DBTRG-05MG cells at 112.4 uM after 48 hrs in presence of TMZ by p.H2A.X staining based fluorescent immunocytochemistry method; assay type: functional, cell-based
[19] = test system: DBTRG-05MG; assay: Induction of DNA damage in human DBTRG-05MG cells assessed as ATR phosphorylation at ser428 residues at 112.4 uM after 48 hrs by Western blot analysis (reference value: 1); assay type: functional
[20] = test system: RG2; assay: Induction of DNA damage in rat RG2 cells assessed as Chk1 phosphorylation at ser345 at 112.4 uM after 48 hrs by Western blot analysis (reference value: 1); assay type: functional
[21] = test system: DBTRG-05MG; assay: Induction of DNA damage in human DBTRG-05MG cells assessed as ATR phosphorylation at ser428 residues at 112.4 uM after 48 hrs in presence of TMZ by Western blot analysis (reference value: 1); assay type: functional
[22] = test system: RG2; assay: Inhibition of TMZ-induced drug resistance in rat RG2 cells assessed as reduction in MGMT protein expression at 112.4 uM after 48 hrs by Immunohistochemistry method; assay type: functional, cell-based
[23] = test system: DBTRG-05MG; assay: Potentiation of TMZ-induced antitumor activity against human DBTRG-05MG cells xenografted in BALB/c nude mouse assessed as reduction in tumor growth at 75 mg/kg, sc co-treated with TMZ for 18 days by PCNA staining-based bright field microscopic analysis; assay type: functional, organism-based; conditions: time 18.0 day
[24] = test system: DBTRG-05MG; assay: Potentiation of TMZ-induced antitumor activity against human DBTRG-05MG cells xenografted in BALB/c nude mouse assessed as increase in apoptotic cells at 75 mg/kg, sc co-treated with TMZ for 18 days by TUNEL assay; assay type: functional, organism-based; conditions: time 18.0 day
[25] = test system: RG2; assay: Induction of cell cycle arrest in rat RG2 cells assessed as accumulation at G0/G1 phase at 206 uM after 6 hrs by propidium iodide staining based flow cytometric analysis (reference value: 57.81 +/- 1.9%); assay type: functional
[26] = test system: RG2; assay: Induction of cell cycle arrest in rat RG2 cells assessed as accumulation at S phase at 206 uM after 12 hrs by propidium iodide staining based flow cytometric analysis (reference value: 20.15 +/- 2.44%); assay type: functional
[27] = target: Serine/threonine-protein kinase AKT (Homo sapiens) (UniProt P31751+Q9Y243+P31749); assay: Inhibition of AKT phosphorylation at S473 residues in human DBTRG-05MG cells at 206 uM after 48 hrs by Western blot analysis; assay type: cell-based
Serine/threonine-protein kinase AKT (Homo sapiens), sequence (P31749 whole entry, looked up): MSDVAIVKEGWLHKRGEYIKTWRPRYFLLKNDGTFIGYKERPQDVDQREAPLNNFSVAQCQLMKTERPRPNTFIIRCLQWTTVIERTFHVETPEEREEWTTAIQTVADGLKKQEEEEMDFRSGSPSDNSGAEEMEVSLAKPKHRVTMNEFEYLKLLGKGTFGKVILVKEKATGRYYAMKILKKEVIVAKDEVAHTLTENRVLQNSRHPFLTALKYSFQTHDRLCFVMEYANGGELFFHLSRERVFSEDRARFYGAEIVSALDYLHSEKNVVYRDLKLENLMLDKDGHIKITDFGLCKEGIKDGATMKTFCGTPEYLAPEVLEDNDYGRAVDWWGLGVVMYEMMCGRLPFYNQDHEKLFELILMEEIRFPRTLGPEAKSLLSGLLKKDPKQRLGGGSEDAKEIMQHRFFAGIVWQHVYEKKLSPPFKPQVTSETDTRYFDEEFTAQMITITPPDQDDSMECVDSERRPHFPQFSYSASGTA
Serine/threonine-protein kinase AKT (Homo sapiens), sequence (P31751 whole entry, looked up): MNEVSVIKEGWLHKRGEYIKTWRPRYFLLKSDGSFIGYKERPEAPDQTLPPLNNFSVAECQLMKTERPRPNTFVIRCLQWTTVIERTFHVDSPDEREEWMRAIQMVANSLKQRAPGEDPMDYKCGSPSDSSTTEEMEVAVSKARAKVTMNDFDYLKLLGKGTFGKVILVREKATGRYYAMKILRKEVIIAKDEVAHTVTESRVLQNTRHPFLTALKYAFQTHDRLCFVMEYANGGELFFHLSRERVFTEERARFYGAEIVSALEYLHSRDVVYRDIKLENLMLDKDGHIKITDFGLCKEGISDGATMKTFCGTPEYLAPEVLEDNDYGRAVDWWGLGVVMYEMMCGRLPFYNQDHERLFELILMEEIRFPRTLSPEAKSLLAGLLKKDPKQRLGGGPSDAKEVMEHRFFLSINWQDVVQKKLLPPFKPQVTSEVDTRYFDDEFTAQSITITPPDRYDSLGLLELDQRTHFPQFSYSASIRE
Serine/threonine-protein kinase AKT (Homo sapiens), sequence (Q9Y243 whole entry, looked up): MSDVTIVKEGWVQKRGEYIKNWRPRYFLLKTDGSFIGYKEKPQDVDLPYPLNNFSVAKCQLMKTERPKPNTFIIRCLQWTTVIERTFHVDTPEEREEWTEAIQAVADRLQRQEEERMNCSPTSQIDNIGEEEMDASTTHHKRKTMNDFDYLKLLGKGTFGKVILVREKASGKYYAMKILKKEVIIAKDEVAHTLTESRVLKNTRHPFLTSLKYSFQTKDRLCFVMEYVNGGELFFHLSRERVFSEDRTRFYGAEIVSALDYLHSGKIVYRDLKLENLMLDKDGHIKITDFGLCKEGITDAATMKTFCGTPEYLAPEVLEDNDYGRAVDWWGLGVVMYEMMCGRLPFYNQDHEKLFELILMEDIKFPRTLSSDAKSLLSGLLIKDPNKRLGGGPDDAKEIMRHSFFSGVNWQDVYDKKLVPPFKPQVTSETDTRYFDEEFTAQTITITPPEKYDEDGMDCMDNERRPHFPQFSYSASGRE

[28] = test system: DBTRG-05MG; assay: Inhibition of ERK phosphorylation at Tyr204 residues in human DBTRG-05MG cells at 206 uM after 48 hrs by Western blot analysis (reference value: 1); assay type: cell-based
[29] = Effect on ERK expression in rat RG2 cells at 206 uM after 48 hrs by Western blot analysis (reference value: 1); assay type: functional
[30] = test system: RG2; assay: Inhibition of p38 phosphorylation at Tyr182 residues in rat RG2 cells at 206 uM after 48 hrs by Western blot analysis (reference value: 1); assay type: cell-based
[31] = test system: DBTRG-05MG; assay: Induction of apoptosis in human DBTRG-05MG cells assessed as phosphorylated caspace-9 expression at 206 uM after 48 hrs by Western blot analysis (reference value: 1); assay type: functional
[32] = test system: DBTRG-05MG; assay: Induction of apoptosis in human DBTRG-05MG cells assessed as cleaved caspace-9 expression at 206 uM after 48 hrs by Western blot analysis (reference value: 1); assay type: functional
[33] = test system: DBTRG-05MG; assay: Induction of DNA damage in human DBTRG-05MG cells assessed as Chk1 phosphorylation at ser345 residues at 206 uM after 48 hrs by Western blot analysis (reference value: 1); assay type: functional

C[C@@H]1CC[C@H]2C(C)(C)[C@H]3C[C@@]12CC[C@@]3(C)O [CEDROL] showed an Activity_index [1] of 0.88, a CI [2] of 0.59 and an Activity_index [3] of 0.72. For the same compound, the CI [4] was 0.99, the CI [5] was 0.84 and the Activity_index [6] was 0.51. For the same compound, the Activity_index [7] was 0.58, the CI [8] was 0.89 and the CI [9] was 1.24. For the same compound, the Activity [10] was 26.19%, the “fold change (FC)” value [11] was 0.7 and the “fold change (FC)” value [12] was 0.6. The “fold change (FC)” value [13] was 0.8, the “fold change (FC)” value [14] was 1 and the fold change (FC) [15] was 1. The fold change (FC) [16] was 0.6, the “fold change (FC)” value [17] was 0.9 and the Activity [18] was “Active”. The “fold change (FC)” value [19] was 1.5, the “fold change (FC)” value [20] was 1.1 and the “fold change (FC)” value [21] was 2.3. The inhibition [22] was “Active”, the Activity [23] was “Active” and the Activity [24] was “Active”.
In the case of Cn1nnc2c(C(N)=O)ncn2c1=O [TEMOZOLOMIDE], the Activity [25] is reported as 54.73%, the Activity [26] is reported as 22.12% and the fold change (FC) [27] is reported as 0.7. The fold change (FC) [28] was 0.8, the “fold change (FC)” value [29] was 1.1 and the fold change (FC) [30] was 1.3. The “fold change (FC)” value [31] was 0.3, the “fold change (FC)” value [32] was 1.8 and the “fold change (FC)” value [33] was 1.
